Experimental data: paper PMC5962729 (Frontiers in Pharmacology, 2018)

Assays:
Assay type in all cases: in vivo
BSEP = assay: Expression level of BSEP in rat liver by UHPLC-MS/MS
Experimental: (§1) Male Sprague Dawley rats (230 ± 20 g, 6–8 weeks of age) were purchased from B&K Laboratory Animal, Corp. Ltd. (Shanghai, China) and fed in the Laboratory Animal Center of Shanghai University of Traditional Chinese Medicine. All rats were allowed to acclimatize for 3 days before experimentation. The rats were randomly divided into six groups (n = 5 for each group). […] Moreover, groups 1 and 2 were intragastrically treated with physiological saline (0.9%) at a dose of 1 mL/100 g. […] At the end of the experiment, all rats were euthanized by CO2 inhalation. The serum samples were stored at -70°C until analysis, and liver samples were isolated and stored at -70°C for further analysis, whereas the central part of the right large lobe of the liver was used for histological examination.
(§2) Biotransformation of xenobiotics and endogenous compounds is a crucial step in the absorption and elimination of potentially harmful substances from the human body, a process that could be affected by the levels of pharmacokinetic enzymes and transporter proteins. […]
(§3) Total membrane protein was isolated (in triplicate) from liver tissue according to the Native Membrane Protein Extraction Kit protocol. Subsequently, protein concentrations were determined by applying the BCA Protein Assay Kit. […]

MDR1 = assay: Expression level of MDR1 in rat liver by UHPLC-MS/MS
Experimental: as §1, §2, §3

OCT1 = assay: Expression level of OCT1 in rat liver by UHPLC-MS/MS
Experimental: as §1, §2, §3

MRP2 = assay: Expression level of MRP2 in rat liver by UHPLC-MS/MS
Experimental: (§4) Male Sprague Dawley rats (230 ± 20 g, 6–8 weeks of age) were purchased from B&K Laboratory Animal, Corp. Ltd. (Shanghai, China) and fed in the Laboratory Animal Center of Shanghai University of Traditional Chinese Medicine. All rats were allowed to acclimatize for 3 days before experimentation. The rats were randomly divided into six groups (n = 5 for each group). […] The rats in groups 4, 5, and 6 were intragastrically administered YCHD every 24 h for 10 consecutive days. The rats in group 3 were orally administered UDCA at a dose of 100 mg/kg every 24 h for 10 consecutive days, which is well-documented to treat induced liver injury and cholestasis ([Chen et al., 2016]; [Cao et al., 2017]). Moreover, groups 1 and 2 were intragastrically treated with physiological saline (0.9%) at a dose of 1 mL/100 g. […] At the end of the experiment, all rats were euthanized by CO2 inhalation. The serum samples were stored at -70°C until analysis, and liver samples were isolated and stored at -70°C for further analysis, whereas the central part of the right large lobe of the liver was used for histological examination. […]

NTCP = assay: Expression level of NTCP in rat liver by UHPLC-MS/MS
Experimental: as §4

OATP1A4 = assay: Expression level of OATP1A4 in rat liver by UHPLC-MS/MS
Experimental: as §4

MATE1 = assay: Expression level of MATE1 in rat liver by UHPLC-MS/MS
Text: Male Sprague Dawley rats (230 ± 20 g, 6–8 weeks of age) were purchased from B&K Laboratory Animal, Corp. Ltd. (Shanghai, China) and fed in the Laboratory Animal Center of Shanghai University of Traditional Chinese Medicine. All rats were allowed to acclimatize for 3 days before experimentation. The rats were randomly divided into six groups (n = 5 for each group). […]
Biotransformation of xenobiotics and endogenous compounds is a crucial step in the absorption and elimination of potentially harmful substances from the human body, a process that could be affected by the levels of pharmacokinetic enzymes and transporter proteins. […] Previous methods of protein quantification are immunological, such as immunoblotting ([Zhang et al., 2016]), […] and two-dimensional electrophoresis ([Bruschi et al., 2015]). […] A milestone in quantitative protein analysis was the introduction of mass spectrometry-based analysis using shotgun proteomic assays with relative protein quantification, which has advantages in terms of absolute accuracy, stability, operability, and efficiency over traditional quantitative methods ([Wang et al., 2015]). […]

[1] = UDCA group, ANIT-treated rats, mean ± S.D.
[2] = UDCA-treated cholestatic rats, liver, as compared with the control group, p < 0.05
[3] = UDCA-treated cholestatic rats, liver, not statistically significant

C[C@H](CCC(=O)O)[C@H]1CC[C@H]2[C@@H]3[C@@H](O)C[C@@H]4C[C@H](O)CC[C@]4(C)[C@H]3CC[C@]12C [UDCA, Ursodeoxycholic acid]
Bsep expression level in rat liver (BSEP; [1]): 18.1±2.56 fmol/μg protein | BSEP level, fold higher (BSEP; [2]): 1.2 fold | Mdr1 expression level in rat liver (MDR1; [1]): 0.67±0.32 fmol/μg protein | MDR1 level, fold higher (MDR1; [2]): 2.4 fold | Oct1 expression level in rat liver (OCT1; [1]): 2.22±0.59 fmol/μg protein | OCT1 level, fold higher (OCT1; [2]): 2.1 fold | Mrp2 expression level in rat liver (MRP2; [1]): 2.21±0.87 fmol/μg protein | MRP2 expression upregulated, fold (MRP2; [3]): 1.5 fold | Ntcp expression level in rat liver (NTCP; [1]): 4.22±1.51 fmol/μg protein | NTCP level, fold higher (NTCP; [2]): 2.2 fold | Oatp1a4 expression level in rat liver (OATP1A4; [1]): 0.49±0.11 fmol/μg protein | OATP1A4 expression upregulated, fold (OATP1A4; [3]): 1.3 fold | Mate1 expression level in rat liver (MATE1; [1]): 3.43±1.38 fmol/μg protein | MATE1 expression upregulated, fold (MATE1; [3]): 1.7 fold
